Laboratory results published in article PMC5746379 (2017).

Tests used:
[1] = test system: P1 (DNA, G4) GGGCGGTGGGAGGGGGGTGGTGGG; assay: absorption, fluorescence titration, WaterLOGSY NMR; details: buffer and highest concentration not stated
[2] = test system: P2 (DNA, G4) GGGCGGGGAGGGGGG; assay: fluorescence titration of M2 (emission shift Δλ); details: excitation 345 nm; buffer not stated
[3] = test system: P2 (DNA, G4) GGGCGGGGAGGGGGG; assay: WaterLOGSY 1H NMR; details: 298 K; water with 10% D2O
[4] = test system: P1 (DNA, G4) GGGCGGTGGGAGGGGGGTGGTGGG; assay: CD melting; details: 1:3 ratio P1-M2; Tm ~79 °C with and without M2; buffer not stated

CN(CCC#N)c1ccc(C=NCCCN=Cc2ccc(N(C)CCC#N)cc2)cc1
binding [1]: no
KD [2]: 13.2 µM
binding [3]: yes
binding [4]: no
